From paper PMC4198181, “Gold(I) Complexes of 9-Deazahypoxanthine as Selective Antitumor and Anti-Inflammatory Agents” (PLoS ONE, 2014)

Columns and labels:
IL-1β mRNA = assay: IL-1β gene expression by RT-qPCR in LPS-stimulated THP-1 macrophages; assay type: cell-based, human; conditions: 300 nM, 2 h after LPS, normalised to β-actin
Procedure: For the determination of biological activity, we used the human monocytic leukaemia cell line THP-1 (ECACC, Salisbury, UK). The cells were cultivated at 37°C in the RPMI 1640 medium supplemented with 2 mM L-glutamine, 10% FBS, 100 U/mL of penicillin and 100 µg/mL of streptomycin in a humidified atmosphere containing 5% CO2. Stabilized cells (3rd–15th passage) were split into microtitration plates to get a concentration of 500 000 cells/mL and the differentiation to macrophages was induced by phorbol myristate acetate (PMA) dissolved in dimethyl sulfoxide (DMSO) at the final concentration of 50 ng/ml, and the cells were incubated for 24 h. In comparison with monocytes, differentiated macrophages tend to adhere to the bottoms of the cultivation plates. For next 24 h the cells were incubated with a fresh complete RPMI medium, i.e. containing antibiotics and FBS, without PMA. The medium was then aspirated, and the cells were washed with PBS and cultivated for next 24 hours in serum-free RPMI 1640 medium. These prepared macrophages were used for the detection of inflammatory response.
In the order to evaluate the expression of TNF-α, IL-1β, and β-actin mRNA, total RNA was isolated directly from the LPS-stimulated THP-1 cells. THP-1 macrophages were pretreated with compounds 2, 5, and Auranofin at the concentration of 300 nM or the vehicle (0.1% DMSO) only. After 1 h of the incubation, the inflammatory response was induced by LPS [except for the control cells (CTRL)]. After 2 h of the incubation with LPS, the medium was aspirated and the total RNA was isolated directly from the cells in cultivation plates using a RealTime Ready Cell Lysis Kit (Roche), according to the manufacturer's instructions.
The gene expression was quantified by two-step reverse-transcription quantitative (real-time) PCR (RT-qPCR). The reverse transcription step was performed by Transcriptor Universal cDNA Master using cell lysate as a template. […] The results were normalized to the amount of ROX reference dye, and the change in gene expression was determined by the 2^−ΔΔCT method. […]

[1] = system: λ-carrageenan-induced hind paw edema; assay: Carrageenan-induced hind paw edema; assay type: in vivo, Wistar-SPF rats
Procedure: Wistar-SPF (6–8 weeks male) rats were obtained from AnLab, Ltd. (Prague, Czech Republic). The animals were kept in plexiglass cages at the constant temperature of 22±1°C and relative humidity of 55±5% for at least 1 week before the experiment. They were given food and water ad libitum. All the experimental procedures were performed according to the National Institutes of Health (NIH) Guide for the Care and Use of Laboratory Animals. In addition, all the tests were conducted under the guidelines of the International Association for the Study of Pain [61]. After a one-week adaptation period, male Wistar-SPF rats (200–250 g) were randomly assigned to five groups (n = 7) of the animals in the study. The first, control group, received 25% DMSO (v/v in water, intraperitoneal; i.p.). The next three groups were pretreated with complexes 2, 4 and 5, and involved into the carrageenan-treatment. The fifth group was treated with a non-steroidal anti-inflammatory drug Indomethacin (5 mg/kg), which served as a positive control group (Indomethacin + carrageenan).
The carrageenan-induced hind paw edema model was used for the determination of anti-inflammatory activity. Animals were i.p. pretreated with complexes 2, 4, and 5 (the dosages of the individual complexes were adjusted to contain the same amount of gold as in 10 mg/kg dose of Auranofin), Indomethacin (5 mg/kg), or 25% DMSO (v/v in water) 30 min prior to the injection of 1% λ-carrageenan solution (50 µL) into the plantar side of right hind paws of the rats. The paw volume was measured immediately after the carrageenan injection (this value was set-up as baseline value for the hind paw volume) and during the next 6 h after the administration of the edematogenic agent using a plethysmometer (model 7159, Ugo Basile, Varese, Italy). The degree of swelling was evaluated as a percentage of the change of the volume of the right hind paw after the carrageenan treatment from the baseline volume. A non-steroidal anti-inflammatory drug Indomethacin was used as a positive control and the obtained data were also compared with the previously reported profile of antiedematous activity for Auranofin [38]. After 6 h, the animals were sacrificed and the edematous feet were dissected, the tissue from the plantar parts was extracted, fixed and stained by a standard hematoxylin/eosin (HE) staining for cytological evaluation of polymorphonuclear cells infiltration.
The statistically significant differences between individual groups during anti- inflammatory testing were evaluated using a one-way ANOVA test for statistical analysis, followed by Tukey's post-hoc test for multiple comparisons. GraphPad Prism 5.02 (GraphPad Software Inc., San Diego, CA, USA) was used to perform the analysis. The results are presented as arithmetic means±S.E. values.

[2] = system: IκB-α degradation (NF-κB signalling pathway); assay: LPS-induced IκB-α degradation (Western blot) in THP-1 macrophages; assay type: cell-based, human; conditions: 300 nM, 30 min after LPS
Procedure: Macrophage-like THP-1 cells were pretreated with the tested compounds and stimulated by LPS as was describe above. Thirty minutes after the addition of LPS, the medium was aspirated and cells were washed by cold phosphate buffer solution (PBS). Subsequently, the cells were collected using the lysis buffer [50 mM Tris-HCl pH 7.5, 1 mM EGTA, 1 mM EDTA, 1 mM sodium orthovanadate, 50 mM sodium fluoride, 5 mM sodium pyrophosphate, 270 mM sucrose, 0.1% (v/v) Triton X-100, and cOmplete Protease Inhibitor Cocktail (Roche, Germany)] and scraper. The lysis of cells was facilitated by a short (≈30 s) incubation in the ultrasonic water bath. The protein concentration was determined according to Bradford's method. For protein separation, 30 µg of protein was loaded onto the 12% polyacrylamide gel. […] The membranes were incubated with the primary anti-IκB-α antibody at the concentration ratio of 1∶500, or with the primary anti-β-actin at the concentration ration of 1∶5 000 at 4°C for 16 h. After washing, the secondary anti-mouse IgG antibody diluted 1∶2 000 was applied on the membranes and incubated at laboratory temperature (22°C) for 1 h. The amount of the bound secondary antibody was detected colorimetrically by an Opti-4CN Kit according to the manufacturer's manual.

[3] = i.p., dose equivalent in gold to 10 mg/kg Auranofin

| SMILES | effect on IL-1β mRNA transcription (IL-1β mRNA) | antiedematous effect compared with Auranofin ([1]; after 180 min, p<0.001, Auranofin profile from ref 38) | overall antiedematous / anti-inflammatory activity [1, 3] | antiedematous activity profile up to 180 min after carrageenan ([1]; i.p., dose equivalent in gold to 10 mg/kg Auranofin, 30 min before carrageenan) | antiedematous activity after 180 min ([1]; i.p., dose equivalent in gold to 10 mg/kg Auranofin, up to 6 h) | effect on LPS-induced IκB degradation [2] |
| --- | --- | --- | --- | --- | --- | --- |
| CC(C)Oc1ncnc2cc[n]([Au])c12.c1ccc(P(c2ccccc2)c2ccccc2)cc1 [complex 2, [Au(L2)(PPh3)]] | significantly reduce the transcription | even better than that of gold-containing metallodrug Auranofin | significant anti-inflammatory effects | very similar pharmacological profiles of complexes 2 and 4 with the reference drug Indomethacin | elimination of hind paw swelling | block moderately the IκB degradation |
| [Au][n]1ccc2ncnc(OCCc3ccccc3)c21.c1ccc(P(c2ccccc2)c2ccccc2)cc1 [complex 5] | significantly reduce the transcription |  | inactive |  |  | block moderately the IκB degradation |
